Reference: US20140274919A1, “BORON-CONTAINING COMPOSITIONS AND METHODS THEREFOR” (VDF FutureCeuticals, Inc., priority 2011, published 2014)

How the values were obtained:
Format in all cases: in vivo
adiponectin = experiment: Oral administration to human volunteers: blood concentration of adiponectin; conditions: samples at 30 minute intervals vs time 0, FIG. 2
Protocol: In this instance the effect of oral administration of CFB on the blood concentration of adiponectin, along with the effect of administration of sodium borate (Na borate), and a placebo compound was measured. Blood samples were taken at a time 0 prior to administration in order to establish a baseline concentration for each individual. Additional samples were taken at 30 minute intervals, and the concentration of adiponectin compared to the baseline level determined for each individual. […] The mechanism for this increase in adiponectin concentration in the blood is not known, but it is contemplated that it may due to increased synthesis, increased release of stored adiponectin, or a combination of these. Therefore, in some embodiments of the inventive subject matter blood concentrations of adiponectin may be increased by about 1%, 2%, 3%, 4%, 5%, 10%, 15%, 20%, 25%, 30%, or more relative to pretreatment values following administration of a boro-carbohydrate complex.
(§1) In all of the above oral administrations, the human volunteers were provided with orally administered single daily doses of 5-50 mg of calcium fructoborate for at least 14 days. […]

[1] = test system: under-carboxylated osteocalcin; experiment: Oral administration to human volunteers: under-carboxylated osteocalcin in blood (Cusabio immunoassay); conditions: single daily doses of 5-50 mg, samples after 7 and 14 days vs day 0, FIG. 1
Protocol: In this instance the effect of administration of a CFB on the concentration of under-carboxylated osteocalcin in the blood of human volunteers, along with the effect of administration of sodium borate (Na borate) and a placebo compound was measured. Blood samples were taken at day 0 prior to administration in order to establish a baseline concentration for each individual. Additional samples were taken after 7 and 14 days of treatment. Under-carboxylated osteocalcin was characterized using a commercially available immunoassay from Cusabio Biotech Co. LTD (Newark, Del.) according to the manufacturer's directions, and the percentage change from pretreatment concentrations of under-carboxylated osteocalcin were calculated. […] In some embodiments of the inventive subject matter the percentage of under-carboxylated osteocalcin (including non-carboxylated osteocalcin) may thus be reduced by about 1%, 2%, 3%, 4%, 5%, 10%, 15%, 20%, 25%, 30%, 35%, 40%, 45%, 50% or more relative to pretreatment values following oral administration of CFB.
as §1

total osteocalcin = experiment: Oral administration to human volunteers: total osteocalcin in blood; conditions: data not shown
YKL-40 = experiment: Oral administration to human volunteers: YKL-40 in blood (Quidel immunoassay); conditions: samples after 7 and 14 days vs Day 0, FIG. 3
Protocol: In all of the above oral administrations, the human volunteers were provided with orally administered single daily doses of 5-50 mg of calcium fructoborate for at least 14 days. However, it should be noted that the orally administered compositions may vary considerably, so long as at least 0.1 mg, more typically at least 1.0 mg, and most typically at least 10-100 mg of the compound are administered to the human (or other mammal). Thus, typical administrations will provide 0.001-0.01 mg/kg, more typically 0.01-0.1 mg/kg, and most typically 0.1-5.0 mg/kg (and in some cases even higher) of the boro-carbohydrate compound per day. […]
In this instance the effect of the administration of CFB on the concentration of YKL-40 in the blood of human volunteers, along with the effect of administration of sodium borate (Na borate) and a placebo compound, was measured. […]
Additional samples were taken after 7 and 14 days of treatment, and the concentration of YKL-40 compared to the baseline level determined for each individual. YKL-40 was characterized using a commercially available immunoassay from Quidel (San Diego, Calif.) according to the manufacturer's directions, and the percentage change from pretreatment concentrations of YKL-40 were calculated. […]

C-reactive protein (CRP) = experiment: Oral administration to human volunteers: circulating C-reactive protein; conditions: FIG. 4
Protocol: In all of the above oral administrations, the human volunteers were provided with orally administered single daily doses of 5-50 mg of calcium fructoborate for at least 14 days. However, it should be noted that the orally administered compositions may vary considerably, so long as at least 0.1 mg, more typically at least 1.0 mg, and most typically at least 10-100 mg of the compound are administered to the human (or other mammal). Thus, typical administrations will provide 0.001-0.01 mg/kg, more typically 0.01-0.1 mg/kg, and most typically 0.1-5.0 mg/kg (and in some cases even higher) of the boro-carbohydrate compound per day. Such administration may be performed in numerous formats, and all types of formulations comprising contemplated compounds are deemed suitable for use herein, including as nutritional supplement, as ingredient in a snack (e.g., energy bar, fruit leather, etc.), a cereal, a beverage, etc.
Additionally, it is contemplated that compounds and compositions according to the inventive subject matter may influence various parameters associated with an inflammatory response, as YKL-40 has been proposed as a diagnostic marker for inflammation. […] Thus, it should be appreciated that contemplated compositions are especially advantageous in reduction of inflammatory markers and conditions associated with increased levels of such markers.

In the case of `O.O.O.O.O.O.O.O.O.O.[Na+].[Na+].[O-]B1OB2OB([O-])OB(O1)O2` [sodium borate, reference compound], the “blood concentration of adiponectin compared to baseline” value (adiponectin) was “similar, but markedly reduced, effect”.

For calcium fructoborate [CFB], the “concentration of under-carboxylated osteocalcin in blood, percentage change from pretreatment” value [1] was “significant reduction”, the “effect on total osteocalcin” value (total osteocalcin) was “no discernable effect” and the “blood concentration of adiponectin compared to baseline” value (adiponectin) was “rapid and sustained increase”. For the same molecule, the “concentration of YKL-40 in blood, percentage change from pretreatment” value (YKL-40) was “significant reduction” and the “concentration of circulating CRP” value (C-reactive protein (CRP)) was “substantially greater effect on reducing the concentration of CRP than sodium borate”.
